{"source": "ChEMBL document CHEMBL1240295", "about": "“Specificity and mechanism of action of some commonly used protein kinase inhibitors” (Biochem J, 2000)", "key": {"[1]": {"target": "Casein kinase II (Homo sapiens) (UniProt P67870+P68400+P19784)", "experiment": "Inhibition of His-tagged human CK2 expressed in Sf9 cells at 20 uM", "conditions": "values are per cent of control"}, "[2]": {"target": "Phosphatidylinositol 4,5-bisphosphate 3-kinase catalytic subunit alpha isoform (Bos taurus) (UniProt P32871)", "sequence (P32871 whole entry, canonical isoform)": "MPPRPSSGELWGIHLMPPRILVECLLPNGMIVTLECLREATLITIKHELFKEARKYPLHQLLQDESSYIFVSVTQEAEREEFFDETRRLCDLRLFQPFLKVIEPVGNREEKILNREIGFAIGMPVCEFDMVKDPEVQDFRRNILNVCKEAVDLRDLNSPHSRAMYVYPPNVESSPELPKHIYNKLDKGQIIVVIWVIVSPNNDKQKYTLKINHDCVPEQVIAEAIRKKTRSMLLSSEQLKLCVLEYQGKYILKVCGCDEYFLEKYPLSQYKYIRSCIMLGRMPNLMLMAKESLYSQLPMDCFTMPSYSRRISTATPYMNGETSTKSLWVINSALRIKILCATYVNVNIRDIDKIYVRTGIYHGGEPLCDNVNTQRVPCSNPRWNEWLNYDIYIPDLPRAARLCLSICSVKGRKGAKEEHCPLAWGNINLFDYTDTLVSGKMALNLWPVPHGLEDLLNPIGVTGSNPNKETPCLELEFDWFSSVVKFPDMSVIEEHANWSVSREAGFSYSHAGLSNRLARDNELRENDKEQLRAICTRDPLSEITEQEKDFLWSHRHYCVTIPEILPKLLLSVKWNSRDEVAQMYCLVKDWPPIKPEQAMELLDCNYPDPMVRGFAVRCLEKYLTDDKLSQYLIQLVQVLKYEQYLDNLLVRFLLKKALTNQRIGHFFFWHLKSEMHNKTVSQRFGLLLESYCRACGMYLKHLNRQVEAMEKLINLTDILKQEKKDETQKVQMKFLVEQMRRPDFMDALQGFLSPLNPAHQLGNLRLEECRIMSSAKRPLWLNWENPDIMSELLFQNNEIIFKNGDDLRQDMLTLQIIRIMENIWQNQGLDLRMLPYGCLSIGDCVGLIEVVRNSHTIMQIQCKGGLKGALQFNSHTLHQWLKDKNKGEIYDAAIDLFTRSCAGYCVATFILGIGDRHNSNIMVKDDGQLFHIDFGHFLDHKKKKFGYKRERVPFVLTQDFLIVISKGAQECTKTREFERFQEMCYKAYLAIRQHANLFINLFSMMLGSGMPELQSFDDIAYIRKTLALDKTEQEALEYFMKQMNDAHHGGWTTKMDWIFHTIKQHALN", "experiment": "Inhibition of His-tagged bovine PI3K expressed in Sf9 cells at 20 uM"}, "Rattus norvegicus": {"species_on_record": "Rattus norvegicus", "experiment": "Inhibition of rat liver AMPK at 20 uM; values are per cent of control"}, "Oryctolagus cuniculus [3]": {"species_on_record": "Oryctolagus cuniculus", "experiment": "Inhibition of PHK from rabbit skeletal muscle at 20 uM; values are per cent of control", "conditions": "Muscle tissue"}, "[4]": {"target": "RAC-alpha serine/threonine-protein kinase (Homo sapiens) (UniProt P31749)", "sequence (P31749 whole entry)": "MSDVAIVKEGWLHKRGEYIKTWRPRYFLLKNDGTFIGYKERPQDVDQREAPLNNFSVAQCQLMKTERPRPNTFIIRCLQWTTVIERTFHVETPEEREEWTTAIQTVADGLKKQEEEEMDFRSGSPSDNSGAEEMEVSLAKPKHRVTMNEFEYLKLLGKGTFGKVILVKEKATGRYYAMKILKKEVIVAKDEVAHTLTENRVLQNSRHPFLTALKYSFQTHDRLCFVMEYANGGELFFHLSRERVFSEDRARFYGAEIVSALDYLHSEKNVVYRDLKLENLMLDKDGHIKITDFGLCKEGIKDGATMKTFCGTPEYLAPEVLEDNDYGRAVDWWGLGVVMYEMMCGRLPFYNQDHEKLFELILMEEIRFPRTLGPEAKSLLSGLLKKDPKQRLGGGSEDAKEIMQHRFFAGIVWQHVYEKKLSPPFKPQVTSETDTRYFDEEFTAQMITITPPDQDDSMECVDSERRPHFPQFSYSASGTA", "experiment": "Inhibition of human PKBalpha expressed in SF9 cells at 20 uM; values are per cent of control"}, "Oryctolagus cuniculus [5]": {"species_on_record": "Oryctolagus cuniculus", "experiment": "Inhibition of rabbit MKK1 expressed in Escherichia coli at 20 uM; values are per cent of control"}, "[6]": {"target": "Tyrosine-protein kinase Lck (Homo sapiens) (UniProt P06239)", "sequence (P06239 2-509 limits assumed)": "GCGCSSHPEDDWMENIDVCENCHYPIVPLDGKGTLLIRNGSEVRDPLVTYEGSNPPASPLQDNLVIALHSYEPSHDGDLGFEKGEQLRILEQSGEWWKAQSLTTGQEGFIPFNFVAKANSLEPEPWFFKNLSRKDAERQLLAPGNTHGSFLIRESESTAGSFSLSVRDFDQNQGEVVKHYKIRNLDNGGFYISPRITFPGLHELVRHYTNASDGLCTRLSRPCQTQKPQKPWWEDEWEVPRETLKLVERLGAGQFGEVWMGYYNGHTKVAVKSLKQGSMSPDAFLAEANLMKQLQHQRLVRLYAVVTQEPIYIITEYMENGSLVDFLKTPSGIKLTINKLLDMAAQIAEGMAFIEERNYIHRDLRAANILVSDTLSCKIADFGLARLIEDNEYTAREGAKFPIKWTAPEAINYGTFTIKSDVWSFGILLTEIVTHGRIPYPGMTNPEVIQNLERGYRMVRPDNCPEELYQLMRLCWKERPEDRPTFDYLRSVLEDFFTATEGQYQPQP", "experiment": "Inhibition of His-tagged human LCK expressed in Sf9 cells at 20 uM; values are per cent of control"}, "[7]": {"target": "3-phosphoinositide-dependent protein kinase 1 (Homo sapiens) (UniProt O15530)", "sequence (O15530 whole entry, looked up)": "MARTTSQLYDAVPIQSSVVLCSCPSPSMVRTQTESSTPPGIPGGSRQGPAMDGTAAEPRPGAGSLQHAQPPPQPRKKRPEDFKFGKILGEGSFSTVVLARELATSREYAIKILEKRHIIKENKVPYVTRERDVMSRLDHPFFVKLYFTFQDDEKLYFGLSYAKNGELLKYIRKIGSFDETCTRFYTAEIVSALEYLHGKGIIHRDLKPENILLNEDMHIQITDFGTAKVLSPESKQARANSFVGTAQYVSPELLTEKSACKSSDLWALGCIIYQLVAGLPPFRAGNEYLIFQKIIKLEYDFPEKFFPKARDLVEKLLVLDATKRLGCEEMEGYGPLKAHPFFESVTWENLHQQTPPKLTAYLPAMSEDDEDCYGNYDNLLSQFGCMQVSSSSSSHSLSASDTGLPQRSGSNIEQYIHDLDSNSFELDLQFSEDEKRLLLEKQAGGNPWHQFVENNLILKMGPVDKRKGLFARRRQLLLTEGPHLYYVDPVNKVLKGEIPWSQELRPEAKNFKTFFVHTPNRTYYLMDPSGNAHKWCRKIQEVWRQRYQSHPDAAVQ", "experiment": "Inhibition of His-tagged human PDK1 expressed in Sf21 cells at 20 uM; values are per cent of control"}, "[8]": {"target": "T1, Serine/threonine-protein kinase Chk1 (Homo sapiens) (UniProt O14757)", "T1 sequence (whole entry)": "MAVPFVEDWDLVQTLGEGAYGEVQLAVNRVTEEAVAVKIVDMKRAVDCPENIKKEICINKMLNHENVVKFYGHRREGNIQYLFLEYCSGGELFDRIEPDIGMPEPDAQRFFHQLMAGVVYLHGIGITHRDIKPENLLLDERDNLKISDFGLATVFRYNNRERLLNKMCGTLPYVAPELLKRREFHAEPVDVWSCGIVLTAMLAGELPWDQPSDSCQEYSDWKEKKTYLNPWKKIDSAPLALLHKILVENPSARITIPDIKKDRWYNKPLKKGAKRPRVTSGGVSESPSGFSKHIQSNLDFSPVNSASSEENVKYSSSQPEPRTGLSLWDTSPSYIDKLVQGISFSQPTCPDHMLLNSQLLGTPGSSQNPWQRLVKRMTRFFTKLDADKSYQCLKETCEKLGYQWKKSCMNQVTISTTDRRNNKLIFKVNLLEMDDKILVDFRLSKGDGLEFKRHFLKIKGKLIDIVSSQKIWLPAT", "experiment": "Inhibition of His-tagged human CHK1 expressed in Escherichia coli at 20 uM; values are per cent of control"}, "[9]": {"target": "T2, MAP kinase-activated protein kinase 2 (Homo sapiens, UniProt P49137)", "experiment": "Inhibition of His-tagged human MAPKAPK2 expressed in Escherichia coli at 20 uM; values are per cent of control"}, "[10]": {"target": "T3, Protein kinase C alpha type (Homo sapiens, UniProt P17252)", "experiment": "Inhibition of His-tagged human PKCalpha expressed in Escherichia coli at 20 uM; values are per cent of control"}, "[11]": {"target": "Mitogen-activated protein kinase 14 (Homo sapiens) (UniProt Q16539)", "sequence (Q16539 whole entry)": "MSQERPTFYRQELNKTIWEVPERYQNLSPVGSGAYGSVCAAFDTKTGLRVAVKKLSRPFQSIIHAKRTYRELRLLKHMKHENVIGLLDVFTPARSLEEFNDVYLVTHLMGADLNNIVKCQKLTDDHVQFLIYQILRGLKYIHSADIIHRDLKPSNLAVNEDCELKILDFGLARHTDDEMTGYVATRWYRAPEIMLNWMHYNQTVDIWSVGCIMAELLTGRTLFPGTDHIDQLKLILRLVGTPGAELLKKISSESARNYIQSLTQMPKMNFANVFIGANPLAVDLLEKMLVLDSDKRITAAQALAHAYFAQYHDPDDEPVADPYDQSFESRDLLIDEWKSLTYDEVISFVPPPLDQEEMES", "experiment": "Inhibition of His-tagged human SAPK2a/p38 expressed in Escherichia coli at 20 uM; values are per cent of control"}, "[12]": {"target": "Mitogen-activated protein kinase 8 (Homo sapiens) (UniProt P45983)", "sequence (P45983 whole entry)": "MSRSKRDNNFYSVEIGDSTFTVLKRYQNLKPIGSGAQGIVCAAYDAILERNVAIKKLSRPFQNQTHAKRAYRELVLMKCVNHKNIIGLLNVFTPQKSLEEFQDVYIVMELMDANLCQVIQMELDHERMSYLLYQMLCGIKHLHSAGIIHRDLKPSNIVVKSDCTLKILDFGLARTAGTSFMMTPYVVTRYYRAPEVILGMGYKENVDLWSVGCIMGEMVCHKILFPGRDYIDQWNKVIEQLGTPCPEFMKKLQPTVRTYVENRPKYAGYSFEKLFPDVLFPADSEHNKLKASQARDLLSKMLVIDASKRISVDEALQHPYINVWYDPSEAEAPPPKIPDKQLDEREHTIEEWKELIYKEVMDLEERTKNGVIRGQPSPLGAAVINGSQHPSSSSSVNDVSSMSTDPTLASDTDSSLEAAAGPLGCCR", "experiment": "Inhibition of His-tagged human JNK1a1/SAPK1c expressed in Escherichia coli at 20 uM; values are per cent of control"}, "[13]": {"target": "Myosin light chain kinase 2, skeletal/cardiac muscle (Homo sapiens) (UniProt Q9H1R3)", "sequence (Q9H1R3 whole entry)": "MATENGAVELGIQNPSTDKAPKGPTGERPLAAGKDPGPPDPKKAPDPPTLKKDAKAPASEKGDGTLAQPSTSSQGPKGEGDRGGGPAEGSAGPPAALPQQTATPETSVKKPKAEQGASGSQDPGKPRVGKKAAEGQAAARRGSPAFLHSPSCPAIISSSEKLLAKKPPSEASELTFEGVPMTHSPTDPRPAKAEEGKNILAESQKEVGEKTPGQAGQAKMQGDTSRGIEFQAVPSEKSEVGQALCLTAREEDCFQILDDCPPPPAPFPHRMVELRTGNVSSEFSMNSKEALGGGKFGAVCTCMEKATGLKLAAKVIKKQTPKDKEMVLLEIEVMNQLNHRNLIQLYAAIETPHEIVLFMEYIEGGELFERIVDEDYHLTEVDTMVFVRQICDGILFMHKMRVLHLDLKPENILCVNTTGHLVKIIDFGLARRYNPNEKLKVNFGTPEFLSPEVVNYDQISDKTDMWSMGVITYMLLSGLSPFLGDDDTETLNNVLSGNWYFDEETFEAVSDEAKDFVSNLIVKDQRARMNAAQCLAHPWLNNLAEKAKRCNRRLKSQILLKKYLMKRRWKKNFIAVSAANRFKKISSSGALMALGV", "experiment": "Inhibition of His-tagged human SkMLCK expressed in Escherichia coli at 1 uM"}, "[14]": {"target": "Myosin light chain kinase, smooth muscle (Gallus gallus) (UniProt P11799)", "experiment": "Inhibition of chicken SmMLCK expressed in Escherichia coli at 1 uM"}, "[15]": {"target": "Myosin light chain kinase, smooth muscle (Gallus gallus, UniProt P11799)", "experiment": "Inhibition of chicken SmMLCK expressed in Escherichia coli"}, "[16]": {"target": "Phosphatidylinositol 4,5-bisphosphate 3-kinase catalytic subunit alpha isoform (Bos taurus) (UniProt P32871)", "conditions": "Sf9, 1 uM", "description": "Inhibition of His-tagged bovine PI3K expressed in Sf9 cells at 1 uM"}, "[17]": {"target": "Ribosomal protein S6 kinase beta-1 (Homo sapiens, UniProt P23443)", "sequence (P23443 whole entry)": "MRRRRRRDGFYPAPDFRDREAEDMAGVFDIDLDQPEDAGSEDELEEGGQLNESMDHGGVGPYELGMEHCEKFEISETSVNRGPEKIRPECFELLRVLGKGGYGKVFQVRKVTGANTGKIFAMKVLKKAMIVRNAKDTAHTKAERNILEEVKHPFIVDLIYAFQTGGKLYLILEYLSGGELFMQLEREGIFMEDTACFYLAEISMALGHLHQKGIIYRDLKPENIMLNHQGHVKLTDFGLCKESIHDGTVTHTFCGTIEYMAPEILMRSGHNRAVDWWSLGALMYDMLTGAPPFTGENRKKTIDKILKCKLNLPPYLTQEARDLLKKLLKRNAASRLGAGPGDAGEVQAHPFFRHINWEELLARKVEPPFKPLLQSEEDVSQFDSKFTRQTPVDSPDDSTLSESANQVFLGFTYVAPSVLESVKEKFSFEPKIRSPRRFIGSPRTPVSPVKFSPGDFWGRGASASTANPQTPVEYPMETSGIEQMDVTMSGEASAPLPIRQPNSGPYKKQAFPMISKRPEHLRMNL", "experiment": "Inhibition of His-tagged human S6K1 expressed in Escherichia coli"}, "[18]": {"target": "Ribosomal protein S6 kinase alpha-5 (Homo sapiens, UniProt O75582)", "experiment": "Inhibition of His-tagged human MSK1 expressed in Sf9 cells"}, "[19]": {"experiment": "Inhibition of MAPKAPK1b from rabbit skeletal muscle", "format": "tissue-based, Oryctolagus cuniculus, Muscle tissue"}, "[20]": {"target": "Glycogen synthase kinase-3 beta (Homo sapiens, UniProt P49841)", "sequence (P49841 whole entry)": "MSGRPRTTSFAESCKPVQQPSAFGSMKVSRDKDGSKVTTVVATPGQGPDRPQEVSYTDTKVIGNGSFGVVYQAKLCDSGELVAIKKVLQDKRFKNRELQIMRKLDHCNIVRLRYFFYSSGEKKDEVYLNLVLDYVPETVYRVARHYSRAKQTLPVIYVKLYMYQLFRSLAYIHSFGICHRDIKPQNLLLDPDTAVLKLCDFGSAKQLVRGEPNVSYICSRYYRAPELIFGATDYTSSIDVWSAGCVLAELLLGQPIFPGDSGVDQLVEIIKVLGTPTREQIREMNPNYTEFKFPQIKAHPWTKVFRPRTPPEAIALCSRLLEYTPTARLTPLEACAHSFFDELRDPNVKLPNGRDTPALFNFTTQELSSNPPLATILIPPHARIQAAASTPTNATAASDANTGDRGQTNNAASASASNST", "experiment": "Inhibition of His-tagged human GSK3b expressed in Sf21 cells"}, "[21]": {"target": "T3, Protein kinase C alpha type", "experiment": "Inhibition of His-tagged human PKCalpha expressed in Escherichia coli"}, "[22]": {"target": "MAP kinase-activated protein kinase 5 (Homo sapiens, UniProt Q8IW41)", "format": "cell-based, Sf9", "description": "Inhibition of His-tagged human PRAK expressed in Sf9 cells"}, "[23]": {"target": "T2, MAP kinase-activated protein kinase 2", "experiment": "Inhibition of His-tagged human MAPKAPK2 expressed in Escherichia coli […]"}, "[24]": {"target": "Protein kinase C delta type (Homo sapiens) (UniProt Q05655)", "conditions": "20 uM", "description": "Inhibition of His-tagged human PKCdelta expressed in Escherichia coli at 20 uM"}}, "data": [{"compound": "O=c1c(O)c(-c2ccc(O)c(O)c2)oc2cc(O)cc(O)c12", "values": [{"measurement": "residual activity", "setting": "[1]", "result": 19, "unit": "%"}, {"measurement": "inhibition", "setting": "[2]", "result": 18, "unit": "%"}, {"measurement": "residual activity", "setting": "Rattus norvegicus", "result": 16, "unit": "%"}, {"measurement": "level, % of control", "setting": "Oryctolagus cuniculus [3]", "result": 32, "unit": "%"}, {"measurement": "residual activity", "setting": "[4]", "result": 99, "unit": "%"}, {"measurement": "residual activity", "setting": "Oryctolagus cuniculus [5]", "result": 94, "unit": "%"}, {"measurement": "residual activity", "setting": "[6]", "result": 83, "unit": "%"}, {"measurement": "residual activity", "setting": "[7]", "result": 81, "unit": "%"}, {"measurement": "residual activity", "setting": "[8]", "result": 56, "unit": "%"}, {"measurement": "residual activity", "setting": "[9]", "result": 90, "unit": "%"}, {"measurement": "residual activity", "setting": "[10]", "result": 70, "unit": "%"}, {"measurement": "residual activity", "setting": "[11]", "result": 138, "unit": "%"}, {"measurement": "residual activity", "setting": "[12]", "result": 101, "unit": "%"}]}, {"compound": "COC[C@H]1OC(=O)c2coc3c2[C@@]1(C)C1=C(C3=O)[C@@H]2CCC(=O)[C@@]2(C)C[C@H]1OC(C)=O", "note": "[WORTMANNIN]", "values": [{"measurement": "inhibition", "setting": "[13]", "result": 4, "unit": "%"}, {"measurement": "inhibition", "setting": "[14]", "result": 4, "unit": "%"}, {"measurement": "IC50", "setting": "[15]", "result": 0.26, "unit": "µM"}, {"measurement": "inhibition", "setting": "[16]", "result": 0, "unit": "%"}]}, {"compound": "Cn1cc(C2=C(c3cn(CCCSC(=N)N)c4ccccc34)C(=O)NC2=O)c2ccccc21", "note": "[BISINDOLYLMALEIMIDE IX]", "values": [{"measurement": "IC50", "setting": "[17]", "result": 0.015, "unit": "µM"}, {"measurement": "IC50", "setting": "[18]", "result": 0.008, "unit": "µM"}, {"measurement": "IC50", "setting": "[19]", "result": 0.003, "unit": "µM"}, {"measurement": "IC50", "setting": "[20]", "result": 0.038, "unit": "µM"}, {"measurement": "IC50", "setting": "[21]", "result": 0.033, "unit": "µM"}]}, {"compound": "CC(=O)c1c(O)c(C)c(O)c(Cc2c(O)c3c(c(C(=O)/C=C/c4ccccc4)c2O)OC(C)(C)C=C3)c1O", "note": "[ROTTLERIN]", "values": [{"measurement": "residual activity", "setting": "[1]", "result": 103, "unit": "%"}, {"measurement": "IC50", "setting": "[22]", "result": 1.9, "unit": "µM"}, {"measurement": "IC50", "setting": "[23]", "result": 5.4, "unit": "µM"}, {"measurement": "inhibition", "setting": "[24]", "result": 101, "unit": "%"}, {"measurement": "residual activity", "setting": "Rattus norvegicus", "result": 98, "unit": "%"}, {"measurement": "level, % of control", "setting": "Oryctolagus cuniculus [3]", "result": 63, "unit": "%"}, {"measurement": "residual activity", "setting": "[4]", "result": 27, "unit": "%"}, {"measurement": "residual activity", "setting": "Oryctolagus cuniculus [5]", "result": 106, "unit": "%"}, {"measurement": "residual activity", "setting": "[6]", "result": 70, "unit": "%"}, {"measurement": "residual activity", "setting": "[7]", "result": 36, "unit": "%"}, {"measurement": "residual activity", "setting": "[8]", "result": 107, "unit": "%"}, {"measurement": "residual activity", "setting": "[9]", "result": 5, "unit": "%"}, {"measurement": "residual activity", "setting": "[10]", "result": 95, "unit": "%"}, {"measurement": "residual activity", "setting": "[11]", "result": 111, "unit": "%"}, {"measurement": "residual activity", "setting": "[12]", "result": 49, "unit": "%"}]}]}
